Values quoted from earlier work in US20140023692A1, “DRUG DELIVERY DEVICE” (priority 2010, published 2014).
≈ marks a conversion by molar mass, not a printed value. Where “and” joins values, the source holds several entries; their conditions need not be identical. Identical values can stand only once. Like-named read-outs stand apart in the source and are kept apart here.

Legend:
[1] = test system: Klebsiella
[2] = test system: Propionibacterium acnes
[3] = test system: Staphylococcus epidermidis
[4] = test system: Proteus
[5] = test system: Staphylococcus aureus
[6] = test system: Bacillus cereus
[7] = topical application, rabbit
[8] = test system: Serratia
[9] = test system: Pseudomonas
[10] = test system: Enterobacter
[11] = test system: Streptococcus pyogenes
[12] = test system: Haemophilus influenzae
[13] = inflamed eyes (intravitreal Staphylococcus aureus, 24 h after inoculation)

## O=C(O)c1cn(C2CC2)c2cc(N3CCNCC3)c(F)cc2c1=O [ciprofloxacin]
[1]
  MIC90: 0.295 µg/mL (≈ 0.89 µM)
[2]
  MIC90: 0.35 µg/mL (≈ 1.06 µM)
[3]
  MIC90: 0.25 µg/mL and 0.375 µg/mL
[4]
  MIC90: 0.267 µg/mL (≈ 0.806 µM)
[5]
  MIC90: 0.57 µg/mL and 0.796 µg/mL
[6]
  MIC90: 0.25 µg/mL (≈ 0.754 µM)
[7]; [13]
  Mean aqueous concentration of ciprofloxacin: 3.65 µg/mL
  Mean vitreous concentration of ciprofloxacin: 0.32 µg/mL
[7]; normal eyes
  Mean aqueous concentration of ciprofloxacin: 2.16 µg/mL
  Mean vitreous concentration of ciprofloxacin: 0.08 µg/mL
[8]
  MIC90: 0.12 µg/mL (≈ 0.362 µM)
[9]
  MIC90: 0.50 µg/mL and 0.626 µg/mL
[10]
  MIC90: 0.206 µg/mL (≈ 0.622 µM)
[11]
  MIC90: 0.782 µg/mL (≈ 2.36 µM)
[12]
  MIC90: 0.014 µg/mL (≈ 0.0423 µM)
